Test results as given in the Kinase Knowledgebase extract (Sharma et al. 2016).

target: EGFR (human) (UniProt P00533)
Sequence (P00533 whole entry, looked up): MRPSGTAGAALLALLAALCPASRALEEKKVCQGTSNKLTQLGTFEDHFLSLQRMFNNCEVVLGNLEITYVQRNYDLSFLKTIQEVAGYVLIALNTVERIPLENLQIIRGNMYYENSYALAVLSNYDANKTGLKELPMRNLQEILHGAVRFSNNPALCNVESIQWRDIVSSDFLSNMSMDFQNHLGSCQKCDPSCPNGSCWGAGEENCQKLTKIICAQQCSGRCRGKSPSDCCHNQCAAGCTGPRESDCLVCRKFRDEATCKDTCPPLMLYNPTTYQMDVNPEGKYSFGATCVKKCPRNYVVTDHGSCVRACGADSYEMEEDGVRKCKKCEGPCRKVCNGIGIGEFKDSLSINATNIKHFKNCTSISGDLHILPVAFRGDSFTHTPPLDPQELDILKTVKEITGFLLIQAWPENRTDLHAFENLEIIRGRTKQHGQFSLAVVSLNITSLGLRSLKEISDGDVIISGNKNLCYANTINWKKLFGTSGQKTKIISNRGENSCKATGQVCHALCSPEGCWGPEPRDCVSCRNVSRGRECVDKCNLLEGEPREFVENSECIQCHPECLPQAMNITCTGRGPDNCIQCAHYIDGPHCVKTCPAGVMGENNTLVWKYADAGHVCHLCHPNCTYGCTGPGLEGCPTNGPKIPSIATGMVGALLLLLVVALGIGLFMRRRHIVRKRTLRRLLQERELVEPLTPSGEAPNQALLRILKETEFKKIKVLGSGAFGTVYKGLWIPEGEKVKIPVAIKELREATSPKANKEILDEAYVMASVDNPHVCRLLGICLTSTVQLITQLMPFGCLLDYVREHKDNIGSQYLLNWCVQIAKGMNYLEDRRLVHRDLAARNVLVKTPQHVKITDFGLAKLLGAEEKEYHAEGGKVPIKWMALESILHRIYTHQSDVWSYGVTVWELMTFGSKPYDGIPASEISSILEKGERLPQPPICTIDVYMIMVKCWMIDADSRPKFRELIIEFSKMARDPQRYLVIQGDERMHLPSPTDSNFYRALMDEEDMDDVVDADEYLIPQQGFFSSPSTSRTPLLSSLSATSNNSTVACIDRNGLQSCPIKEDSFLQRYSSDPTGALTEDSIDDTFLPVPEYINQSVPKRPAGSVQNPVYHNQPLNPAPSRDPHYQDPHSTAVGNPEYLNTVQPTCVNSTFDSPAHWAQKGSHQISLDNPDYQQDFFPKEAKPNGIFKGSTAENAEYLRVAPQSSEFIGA

IC50, < 1000 nM:
O=[N+]([O-])c1cccc(-c2ccc(C=NNc3nc4nonc4nc3Nc3cccc(Cl)c3)o2)c1, O=C(O)c1cc(-c2ccc(C=NNc3nc4nonc4nc3Nc3ccc(F)c(Cl)c3)o2)ccc1Cl, Clc1ccc(Nc2nc3nonc3nc2NN=Cc2ccco2)cc1Cl, COc1ccc(C=NNc2nc3nonc3nc2Nc2ccc(Cl)c(Cl)c2)c(O)c1, O=C(O)c1cc(-c2ccc(C=NNc3nc4nonc4nc3Nc3ccc(Cl)c(Cl)c3)o2)ccc1Cl, Cc1cccc(Nc2nc3nonc3nc2NN=Cc2ccc(-c3cccc(C(=O)O)c3)o2)c1, Fc1ccc(Nc2nc3nonc3nc2NN=Cc2ccc(-c3ccc(Cl)cc3)o2)cc1Cl, COc1cc(Br)cc(C=NNc2nc3nonc3nc2Nc2cccc(Cl)c2)c1O, Clc1ccc(Nc2nc3nonc3nc2NN=Cc2ccc(-c3ccccc3)o2)cc1Cl, COc1cccc(C=NNc2nc3nonc3nc2Nc2ccc(Cl)c(Cl)c2)c1O, O=C(O)c1cccc(-c2ccc(C=NNc3nc4nonc4nc3Nc3cccc(Cl)c3)o2)c1, O=C(O)c1cc(-c2ccc(C=NNc3nc4nonc4nc3Nc3ccccc3F)o2)ccc1Cl, COc1ccc(O)c(C=NNc2nc3nonc3nc2Nc2ccc(Cl)c(Cl)c2)c1, Cc1cccc(Nc2nc3nonc3nc2NN=Cc2ccc(-c3ccc(Cl)c(C(=O)O)c3)o2)c1C, Clc1ccc(-c2ccc(C=NNc3nc4nonc4nc3Nc3ccc(Cl)c(Cl)c3)o2)cc1, Fc1ccc(Nc2nc3nonc3nc2NN=Cc2ccc(-c3ccccc3)o2)cc1Cl, O=C(O)c1cc(-c2ccc(C=NNc3nc4nonc4nc3Nc3ccc(Br)cc3)o2)ccc1Cl, Oc1c(Br)cc(Br)cc1C=NNc1nc2nonc2nc1Nc1ccc(F)c(Cl)c1, COc1cc(C=NNc2nc3nonc3nc2Nc2ccccc2F)cc([N+](=O)[O-])c1O, Fc1ccc(Nc2nc3nonc3nc2NN=Cc2cc3ccccc3o2)cc1Cl, NC(=O)c1cccc(-c2ccc(C=NNc3nc4nonc4nc3Nc3ccc(Cl)c(Cl)c3)o2)c1, O=C(O)c1cccc(-c2ccc(C=NNc3nc4nonc4nc3Nc3ccc(Cl)c(Cl)c3)o2)c1, Oc1c(Br)cc(Br)cc1C=NNc1nc2nonc2nc1Nc1cccc(Cl)c1, CCOC(=O)c1ccccc1C=NNc1nc2nonc2nc1Nc1ccc(Cl)c(Cl)c1, Oc1c(Br)cc(Cl)cc1C=NNc1nc2nonc2nc1Nc1ccc(Cl)c(Cl)c1, O=C(O)c1cccc(C=NNc2nc3nonc3nc2Nc2ccc(F)c(Cl)c2)c1, O=C(O)c1cc(-c2ccc(C=NNc3nc4nonc4nc3Nc3ccc(F)cc3)o2)ccc1Cl, Oc1ccc(C=NNc2nc3nonc3nc2Nc2ccc(Cl)c(Cl)c2)c(O)c1, O=C(O)c1cc(-c2ccc(C=NNc3nc4nonc4nc3Nc3ccccc3F)o2)ccc1O, O=C(O)c1ccc(-c2ccc(C=NNc3nc4nonc4nc3Nc3ccc(F)cc3)o2)cc1, O=C(O)c1ccc(-c2ccc(C=NNc3nc4nonc4nc3Nc3ccc(Cl)c(Cl)c3)o2)cc1, O=C(O)c1ccc(C=NNc2nc3nonc3nc2Nc2ccc(F)c(Cl)c2)cc1, Fc1ccc(Nc2nc3nonc3nc2NN=Cc2ccc(-c3ccc(Cl)cc3Cl)o2)cc1, O=[N+]([O-])c1cccc(-c2ccc(C=NNc3nc4nonc4nc3Nc3ccc(F)cc3)o2)c1, O=C(O)c1cccc(C=NNc2nc3nonc3nc2Nc2ccc(Cl)c(Cl)c2)c1, O=C1Nc2ccccc2C1=NNc1nc2nonc2nc1Nc1ccc(Cl)c(Cl)c1, O=c1[nH]c2ccc(Nc3nc4nonc4nc3NN=Cc3cc(I)cc(I)c3OCc3ccc(Cl)cc3Cl)cc2[nH]1, Clc1ccc(Nc2nc3nonc3nc2NN=Cc2cc3ccccc3o2)cc1Cl, NC(=O)c1cccc(-c2ccc(C=NNc3nc4nonc4nc3Nc3ccc(F)c(Cl)c3)o2)c1, O=C(O)c1ccc(-c2ccc(C=NNc3nc4nonc4nc3Nc3ccc(F)c(Cl)c3)o2)cc1, O=C1Nc2ccccc2C1=NNc1nc2nonc2nc1Nc1ccc(F)c(Cl)c1
